Data published in patent US9192166B2, “Compositions comprising a streptomyces-based biological control agent and an insecticide” (BAYER […], priority 2013, dated 2015).

Key:
Assay type in all cases: in vivo
[1] = system: fall armyworm larvae (Spodoptera frugiperda); assay: Spodoptera frugiperda spray test
Text: (§1) Emulsifier: alkylaryl polyglycol ether

[2] = system: green peach aphid (Myzus persicae); assay: Myzus persicae spray test (Chinese cabbage leaf disks)
Text: as §1
100% means all aphids have been killed; 0% means none of the aphids have been killed.

[3] = system: mustard beetle larvae (Phaedon cochleariae); assay: Phaedon cochleariae spray test
Text: The fermentation product is referred to in the examples below as NRRL B-50550.
Solvent: 78.0 parts by weight of acetone

[4] = system: two spotted spidermite (Tetranychus urticae); assay: Tetranychus urticae spray test, OP-resistant
Text: as §1

[5] = system: green peach aphid (Myzus persicae); assay: Myzus persicae spray test (pepper leaves); settings: 0.5 ppm

With Spinetoram the “Efficacy in % after 2d” value ([1]; 0.64 ppm) was 0%.

In the case of `CNC(=O)Oc1cc(C)c(SC)c(C)c1` [Methiocarb], the “Efficacy in % after 6d” value ([2]; 2000 ppm) is reported as 0%.

`CC1(C)C(C=C(Cl)Cl)C1C(=O)OC(C#N)c1ccc(F)c(Oc2ccccc2)c1` (stereo not drawn) [β-Cyfluthrin, beta-Cyfluthrin] was tested, and the “Efficacy in % after 6d” value ([2]; 1.6 ppm) was 0%, the “Efficacy in % after 6d” value ([3]; 1.6 ppm) was 0% and the “Efficacy in % after 6d” value ([1]; 1.6 ppm) was 0%.

In the case of `N#Cc1nn(-c2c(Cl)cc(C(F)(F)F)cc2Cl)c(N)c1[S+]([O-])C(F)(F)F` (stereo not shown) [Fipronil], the “Efficacy in % after 6d” value ([1]; 16 ppm) is reported as 0%.

In the case of `CS/C(C)=N\OC(=O)N(C)SN(C)C(=O)O/N=C(\C)SC` [Thiodicarb], the “Efficacy in % after 2d” value ([1]; 40 ppm) is reported as 0%.

In the case of `CNC(=O)c1cc(C#N)cc(C)c1NC(=O)c1cc(Br)nn1-c1ncccc1Cl` [Cyantraniliprole], the “Efficacy in % after 6d” value ([4]; 80 ppm) is reported as 0%, the “Efficacy in % after 6d” value ([2]; 0.64 ppm) is reported as 0% and the “Efficacy in % after 6d” value ([2]; 3.2 ppm) is reported as 0%. For the same compound, the “Efficacy in % after 1d” value ([2]; 16 ppm) was 0% and the “Efficacy in % after 6d” value ([3]; 0.64 ppm) was 0%.

In the case of `O=[N+]([O-])NC1=NCCN1Cc1ccc(Cl)nc1` [Imidacloprid], the “Efficacy in % after 6d” value ([4]; 2 ppm) is reported as 0%.

With `N#C/N=C1\SCCN1Cc1ccc(Cl)nc1` [Thiacloprid] the “Efficacy in % after 2d” value [5] was 40%, the “Efficacy in % after 3d” value [5] was 20% and the “Efficacy in % after 7d” value [5] was 10%.

For `CNC(=O)c1cc(C#N)cc(C)c1NC(=O)c1cc(Cn2nnc(C(F)(F)F)n2)nn1-c1ncccc1Cl` [1-(3-chloropyridin-2-yl)-N-[4-cyano-2-methyl-6-(methylcarbamoyl)phenyl]-3-{[5-(trifluoromethyl)-2H-tetrazol-2-yl]methyl}-1H-pyrazole-5-carboxamide], the “Efficacy in % after 6d” value ([3]; 0.128 ppm) was 0%, the “Efficacy in % after 2d” value ([3]; 0.64 ppm) was 50% and the “Efficacy in % after 6d” value ([1]; 0.64 ppm) was 33%.

In the case of `Cc1cc(F)c(-n2nc(C(F)(F)F)nc2N)cc1[S+]([O-])CC(F)(F)F` (stereo not shown) [1-{2-fluoro-4-methyl-5-[(2,2,2-trifluorethyl)sulfinyl]phenyl}-3-(trifluoromethyl)-1H-1,2,4-triazol-5-amine], the “Efficacy in % after 6d” value ([4]; 3.2 ppm) is reported as 0%.

`Cc1cc(C(F)(C(F)(F)F)C(F)(F)F)ccc1NC(=O)c1cccc(I)c1C(=O)NC(C)(C)CS(C)(=O)=O` [Flubendiamide] was tested, and the “Efficacy in % after 2d” value ([1]; 3.2 ppm) was 33%.

For `CN/C(=N\[N+](=O)[O-])NCc1cnc(Cl)s1` [Clothianidin], the “Efficacy in % after 6d” value ([2]; 0.32 ppm) was 0%.

`CC(c1ccc(C(F)(F)F)nc1)S(C)(=O)=NC#N` (stereo not shown) [Sulfoxaflor] was tested, and the “Efficacy in % after 1d” value ([2]; 0.64 ppm) was 0%.

For `Cc1c(F)c(F)c(COC(=O)[C@@H]2[C@H](/C=C(\Cl)C(F)(F)F)C2(C)C)c(F)c1F` (racemic) [Tefluthrin], the “Efficacy in % after 2d” value ([3]; 40 ppm) was 0%.

For `CNC(=O)c1cc(Cl)cc(C)c1NC(=O)c1cc(Br)nn1-c1ncccc1Cl` [Chlorantraniliprole], the “Efficacy in % after 6d” value ([4]; 16 ppm) was 0% and the “Efficacy in % after 1d” value ([2]; 3.2 ppm) was 0%.

For Spinosad, the “Efficacy in % after 2d” value ([3]; 80 ppm) was 50% and the “Efficacy in % after 6d” value ([1]; 0.64 ppm) was 0%.
